Values of other authors as cited in patent publication US20190045778A1, “EMULSIFIABLE CONCENTRATES” (priority 2016, published 2019).
Where two headings read alike, the source gives them in different places.

Row | Molecule | Water Solubility (at 20° C.) [g/L at 20 °C] | Water Solubility (at 25° C.) [g/L at 25 °C]
1 | CN/C(=N\[N+](=O)[O-])NCc1cnc(Cl)s1 [clothianidin] | 0.33 | –
2 | N#C/N=C1/SCCN1Cc1ccc(Cl)nc1 [thiacloprid] | 0.1 | –
3 | thiamethoxam | – | 4.1
